Here are results for 25 compounds from patent US11497752B2, “Compounds and uses thereof” (Foghorn Therapeutics Inc., priority 2018, dated 2022).

For test [1], the target named is BRM (Homo sapiens, UniProt P51531). As to the kind of experiment: ATPase catalytic activity of BRM (ADP-Glo in vitro biochemical assay). For orientation: In ADP-Glo the light output rises with the ADP produced.
Test [2] concerns the target BRG-1 (Homo sapiens, UniProt P51532). As to the kind of experiment: ATPase catalytic activity of BRG-1 (ADP-Glo in vitro biochemical assay). The conditions noted are these: for BRG1 Max % Inhibition: Table 5.

BRG-1, sequence (P51532 whole entry): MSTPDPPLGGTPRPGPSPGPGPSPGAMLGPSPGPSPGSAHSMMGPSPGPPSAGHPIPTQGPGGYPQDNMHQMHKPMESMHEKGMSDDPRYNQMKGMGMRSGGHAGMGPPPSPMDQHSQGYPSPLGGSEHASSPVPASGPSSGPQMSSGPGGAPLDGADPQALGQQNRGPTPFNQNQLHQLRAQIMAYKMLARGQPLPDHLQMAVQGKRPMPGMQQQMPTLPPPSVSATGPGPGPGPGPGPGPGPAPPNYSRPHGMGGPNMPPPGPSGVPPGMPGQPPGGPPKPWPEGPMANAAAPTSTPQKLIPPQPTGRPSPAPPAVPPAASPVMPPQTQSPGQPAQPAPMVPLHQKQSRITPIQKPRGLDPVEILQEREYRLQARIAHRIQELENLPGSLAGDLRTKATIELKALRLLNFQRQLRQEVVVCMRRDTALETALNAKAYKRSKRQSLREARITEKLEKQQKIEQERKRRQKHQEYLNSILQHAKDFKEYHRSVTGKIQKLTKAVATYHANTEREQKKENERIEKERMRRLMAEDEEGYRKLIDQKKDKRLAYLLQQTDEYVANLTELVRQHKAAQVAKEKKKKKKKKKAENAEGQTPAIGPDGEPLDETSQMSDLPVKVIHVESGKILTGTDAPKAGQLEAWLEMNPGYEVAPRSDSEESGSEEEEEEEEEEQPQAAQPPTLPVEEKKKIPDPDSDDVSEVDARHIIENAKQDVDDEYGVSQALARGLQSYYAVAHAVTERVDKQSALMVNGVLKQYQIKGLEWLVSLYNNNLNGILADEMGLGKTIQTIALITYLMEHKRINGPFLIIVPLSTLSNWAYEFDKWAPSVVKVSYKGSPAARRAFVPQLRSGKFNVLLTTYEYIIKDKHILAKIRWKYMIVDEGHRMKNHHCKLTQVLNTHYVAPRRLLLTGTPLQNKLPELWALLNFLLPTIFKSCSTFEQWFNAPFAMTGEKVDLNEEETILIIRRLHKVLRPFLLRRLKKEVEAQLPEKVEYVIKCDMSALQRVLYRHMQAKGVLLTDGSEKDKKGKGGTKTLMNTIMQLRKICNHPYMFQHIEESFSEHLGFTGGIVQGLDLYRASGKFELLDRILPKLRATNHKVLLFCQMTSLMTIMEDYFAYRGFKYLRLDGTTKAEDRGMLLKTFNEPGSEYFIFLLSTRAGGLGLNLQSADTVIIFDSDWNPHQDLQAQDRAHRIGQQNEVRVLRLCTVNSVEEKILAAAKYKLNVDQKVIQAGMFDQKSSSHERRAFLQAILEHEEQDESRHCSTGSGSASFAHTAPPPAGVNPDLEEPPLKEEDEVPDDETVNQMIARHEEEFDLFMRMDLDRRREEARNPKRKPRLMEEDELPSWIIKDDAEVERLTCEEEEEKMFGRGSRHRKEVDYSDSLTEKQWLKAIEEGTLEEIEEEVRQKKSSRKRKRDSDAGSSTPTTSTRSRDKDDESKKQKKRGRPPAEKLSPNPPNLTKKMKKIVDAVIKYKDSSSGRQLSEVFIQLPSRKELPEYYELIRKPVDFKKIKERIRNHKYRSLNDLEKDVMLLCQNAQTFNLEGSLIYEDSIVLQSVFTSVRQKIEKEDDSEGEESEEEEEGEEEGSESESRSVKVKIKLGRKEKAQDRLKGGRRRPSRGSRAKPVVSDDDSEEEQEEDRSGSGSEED
BRM, sequence (P51531 whole entry): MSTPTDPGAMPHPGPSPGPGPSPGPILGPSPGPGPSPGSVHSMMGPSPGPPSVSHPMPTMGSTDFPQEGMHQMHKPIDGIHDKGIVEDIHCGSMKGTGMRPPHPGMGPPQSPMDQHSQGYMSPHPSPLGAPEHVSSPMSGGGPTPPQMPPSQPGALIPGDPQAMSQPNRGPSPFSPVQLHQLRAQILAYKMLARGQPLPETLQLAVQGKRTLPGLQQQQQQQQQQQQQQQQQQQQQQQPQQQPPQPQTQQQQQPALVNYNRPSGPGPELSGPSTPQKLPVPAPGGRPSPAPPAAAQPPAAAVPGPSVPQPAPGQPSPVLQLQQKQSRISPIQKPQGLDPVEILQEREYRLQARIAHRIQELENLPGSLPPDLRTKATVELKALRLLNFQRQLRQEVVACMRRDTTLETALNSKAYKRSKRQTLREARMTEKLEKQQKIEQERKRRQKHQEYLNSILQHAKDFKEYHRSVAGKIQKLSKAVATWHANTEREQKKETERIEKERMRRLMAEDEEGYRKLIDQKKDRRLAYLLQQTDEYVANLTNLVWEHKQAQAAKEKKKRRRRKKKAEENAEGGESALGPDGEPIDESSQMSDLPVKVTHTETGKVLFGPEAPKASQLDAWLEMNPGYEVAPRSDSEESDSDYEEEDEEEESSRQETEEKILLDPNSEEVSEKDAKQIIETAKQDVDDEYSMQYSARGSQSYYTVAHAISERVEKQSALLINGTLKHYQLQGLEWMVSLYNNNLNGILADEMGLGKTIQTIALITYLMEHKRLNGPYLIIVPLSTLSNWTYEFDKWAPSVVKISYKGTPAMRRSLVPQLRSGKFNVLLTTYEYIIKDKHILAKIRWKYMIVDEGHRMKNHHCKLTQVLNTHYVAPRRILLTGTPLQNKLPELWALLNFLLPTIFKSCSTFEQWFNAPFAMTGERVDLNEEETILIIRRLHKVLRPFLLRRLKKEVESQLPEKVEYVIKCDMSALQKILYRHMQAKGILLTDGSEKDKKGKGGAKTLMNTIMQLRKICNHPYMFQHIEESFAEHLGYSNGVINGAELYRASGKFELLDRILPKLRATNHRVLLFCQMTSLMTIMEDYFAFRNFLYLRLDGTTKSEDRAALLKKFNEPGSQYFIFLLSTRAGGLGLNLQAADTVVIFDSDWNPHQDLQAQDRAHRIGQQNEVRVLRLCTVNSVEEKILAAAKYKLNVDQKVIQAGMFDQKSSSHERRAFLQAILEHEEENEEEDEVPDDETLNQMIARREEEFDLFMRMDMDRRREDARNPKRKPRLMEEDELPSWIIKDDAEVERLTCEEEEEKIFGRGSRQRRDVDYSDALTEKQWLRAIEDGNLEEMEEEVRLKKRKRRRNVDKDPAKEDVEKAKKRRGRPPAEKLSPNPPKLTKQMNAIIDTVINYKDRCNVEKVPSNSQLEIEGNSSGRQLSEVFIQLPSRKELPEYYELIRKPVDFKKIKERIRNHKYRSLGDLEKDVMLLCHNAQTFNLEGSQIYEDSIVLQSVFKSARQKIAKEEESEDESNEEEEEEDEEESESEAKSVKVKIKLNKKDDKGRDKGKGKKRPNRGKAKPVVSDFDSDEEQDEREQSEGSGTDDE

Broadly, the IC50 is the midpoint of a concentration-inhibition curve. Lower therefore signals greater potency. For the compound `Cc1cccc(-c2csc(NC(=O)CNC(=O)c3cccc(S(=O)(=O)N(C)C)c3)n2)c1` [Compound 1, 3-(dimethylsulfamoyl)-N-[2-[[4-(m-tolyl)thiazol-2-yl]amino]-2-oxo-ethyl]benzamide], the IC50 in test [1] lay in the range of 1 to 10 µM. Further, the “BRM Max % Inhibition” value in test [1] (Table 5) is >95%. In test [2], the half-maximal inhibitory concentration (IC50) lay in the range of 1 to 10 µM and the “BRG1 Max % Inhibition” value is >70%.
Take `CSCC[C@H](NC(=O)c1ccc(C)c(S(C)(=O)=O)c1)C(=O)Nc1nc(-c2ccccc2)cs1` [Compound 2, 4-methyl-N-[(1S)-3-methylsulfanyl-1-[(4-phenylthiazol-2-yl)carbamoyl]propyl]-3-methylsulfonyl-benzamide]: the IC50 in test [1] was < 1 µM; in test [2] it was 1 to 10 µM. Further, in test [1] (Table 5), the “BRM Max % Inhibition” value is on record as >95%. Besides, the “BRG1 Max % Inhibition” value in test [2] is reported as >95%.
Take `CSCC[C@H](NC(=O)c1cccc(S(C)(=O)=O)c1)C(=O)Nc1nc(-c2ccccc2)cs1` [Compound 3, (S)-3-(methylsulfonyl)-N-(4-(methylthio)-1-oxo-1-((4-phenylthiazol-2-yl)amino)butan-2-yl)benzamide]: the IC50 in test [1] and in test [2] was 1 to 10 µM each time. The “BRM Max % Inhibition” value in test [1] (Table 5) is >95%. In addition, in test [2], the “BRG1 Max % Inhibition” value is recorded as >90%.
Turning to `CNC(=O)c1cccc(-c2csc(NC(=O)CNC(=O)c3cccc(S(=O)(=O)N(C)C)c3)n2)c1` [Compound 4, 3-[2-[[2-[[3-(dimethylsulfamoyl)benzoyl]amino]acetyl]amino]thiazol-4-yl]-N-methyl-benzamide], in test [1], the IC50 is 1 to 10 µM. In addition, the “BRM Max % Inhibition” value in test [1] (Table 5) is reported as >90%. Moreover, in test [2], the IC50 is > 10 µM and the “BRG1 Max % Inhibition” value is given as >70%.
On the same counts, the results for `CC(=O)NCc1cccc(-c2csc(NC(=O)CNC(=O)c3cccc(S(=O)(=O)N(C)C)c3)n2)c1` [Compound 5, N-[2-[[4-[3-(acetamidomethyl)phenyl]thiazol-2-yl]amino]-2-oxo-ethyl]-3-(dimethylsulfamoyl)benzamide] are > 10 µM, >90%, > 10 µM and >70%.
`CC(C)S(=O)(=O)c1cccc(C(=O)NCC(=O)Nc2nc(-c3ccccc3)cs2)c1` [Compound 6, 3-(isopropylsulfonyl)-N-(2-oxo-2-((4-phenylthiazol-2-yl)amino)ethyl)benzamide] had an IC50 in test [1] of 1 to 10 µM. Also, the “BRM Max % Inhibition” value in test [1] (Table 5) is reported as >90%. Further, in test [2], the 50% inhibitory concentration (IC50) is > 10 µM and the “BRG1 Max % Inhibition” value is listed as >60%.
For the compound `CN(C)S(=O)(=O)c1cccc(C(=O)NCC(=O)Nc2nc(-c3cccc(Br)c3)cs2)c1` [Compound 7], the IC50 in test [1] and in test [2] was 1 to 10 µM each time. The “BRM Max % Inhibition” value in test [1] (Table 5) is given as >90%. Moreover, in test [2], the “BRG1 Max % Inhibition” value is >60%.
`CN(C)S(=O)(=O)c1cccc(C(=O)NCC(=O)Nc2nc(-c3cccc(C#N)c3)cs2)c1` [Compound 8, N-[2-[[4-(3-cyanophenyl)thiazol-2-yl]amino]-2-oxo-ethyl]-3-(dimethylsulfamoyl)benzamide]: in test [1], the IC50 lay within 1 to 10 µM. In test [1] (Table 5), the “BRM Max % Inhibition” value is given as >90%. Moreover, in test [2], the 50% inhibitory concentration (IC50) is > 10 µM and the “BRG1 Max % Inhibition” value is on record as >70%.
`COC(=O)c1cccc(-c2csc(NC(=O)CNC(=O)c3cccc(S(=O)(=O)N(C)C)c3)n2)c1` [Compound 9, methyl 3-[2-[[2-[[3-(dimethylsulfamoyl)benzoyl]amino]acetyl]amino]thiazol-4-yl]benzoate]: the 50% inhibitory concentration (IC50) in test [1] was < 1 µM. The “BRM Max % Inhibition” value in test [1] (Table 5) is listed as >90%. Also, in test [2], the IC50 is < 1 µM and the “BRG1 Max % Inhibition” value was >60%.
On to `CN(C)S(=O)(=O)c1cccc(C(=O)NCC(=O)Nc2nc(-c3cccc(CN)c3)cs2)c1` [Compound 10, N-[2-[[4-[3-(aminomethyl)phenyl]thiazol-2-yl]amino]-2-oxo-ethyl]-3-(dimethylsulfamoyl)benzamide], for which, in test [1], the IC50 is > 10 µM. For the same compound, in test [1] (Table 5), the “BRM Max % Inhibition” value is >90%. Besides, in test [2], the half-maximal inhibitory concentration (IC50) was > 10 µM and the “BRG1 Max % Inhibition” value is listed as >90%.
`CC(=O)NCc1ccc(-c2csc(NC(=O)CNC(=O)c3cccc(S(=O)(=O)N(C)C)c3)n2)cc1` [Compound 11, N-[2-[[4-[4-(acetamidomethyl)phenyl]thiazol-2-yl]amino]-2-oxo-ethyl]-3-(dimethylsulfamoyl)benzamide]: the IC50 in test [1] is 1 to 10 µM; in test [2], > 10 µM. In test [1] (Table 5), the “BRM Max % Inhibition” value is given as >80%. The “BRG1 Max % Inhibition” value in test [2] is on record as >70%.
Compound `CN(C)S(=O)(=O)c1cccc(C(=O)NCC(=O)Nc2nc(-c3ccccc3)cs2)c1` [Compound 13, 3-(dimethylsulfamoyl)-N-[2-oxo-2-[(4-phenylthiazol-2-yl)amino]ethyl]benzamide] showed a concentration for half-maximal inhibition (IC50) in test [1] of 1 to 10 µM. In test [1] (Table 5), the “BRM Max % Inhibition” value was >80%. In test [2], the IC50 was in the range of 1 to 10 µM and the “BRG1 Max % Inhibition” value was >30%.
In turn, `CSCC[C@H](NC(=O)c1cccc(S(=O)(=O)C(C)C)c1)C(=O)Nc1nc(-c2ccccc2)cs1` [Compound 14, (S)-3-(isopropylsulfonyl)-N-(4-(methylthio)-1-oxo-1-((4-phenylthiazol-2-yl)amino)butan-2-yl)benzamide] showed an IC50 in test [1] of 1 to 10 µM. Further, the “BRM Max % Inhibition” value in test [1] (Table 5) is listed as >80%. In test [2], the 50% inhibitory concentration (IC50) was > 10 µM and the “BRG1 Max % Inhibition” value is recorded as >60%.
With `CN(C)S(=O)(=O)c1cccc(C(=O)NCC(=O)Nc2nc(-c3ccc4c(c3)OCCO4)cs2)c1` [Compound 15, N-(2-((4-(2,3-dihydrobenzo[b][1,4]dioxin-6-yl)thiazol-2-yl)amino)-2-oxoethyl)-3-(N,N-dimethylsulfamoyl)benzamide], the half-inhibitory concentration (IC50) in test [1] was 1 to 10 µM. Besides, the “BRM Max % Inhibition” value in test [1] (Table 5) was >80%. Further, in test [2], the IC50 lay within 1 to 10 µM and the “BRG1 Max % Inhibition” value is on record as >60%.
For the compound `Cc1ccccc1-c1csc(NC(=O)CNC(=O)c2cccc(S(=O)(=O)N(C)C)c2)n1` [Compound 16, 3-(dimethylsulfamoyl)-N-[2-[[4-(o-tolyl)thiazol-2-yl]amino]-2-oxo-ethyl]benzamide], the IC50 in test [1] was 1 to 10 µM; in test [2] it was > 10 µM. The “BRM Max % Inhibition” value in test [1] (Table 5) is >80%. In addition, the “BRG1 Max % Inhibition” value in test [2] is >60%.
On the same counts, the results for `CCC[C@H](NC(=O)c1cccc(S(=O)(=O)N(C)C)c1)C(=O)Nc1nc(-c2ccccc2)cs1` [Compound 17, 3-(dimethylsulfamoyl)-N-[(1S)-1-[(4-phenylthiazol-2-yl)carbamoyl]butyl]benzamide] are 1 to 10 µM, > 10 µM, >80% and >60%.
On the same counts, the results for `CN(C)S(=O)(=O)c1cccc(C(=O)NCC(=O)Nc2nc(-c3ccccc3Br)cs2)c1` [Compound 18, N-[2-[[4-(2-bromophenyl)thiazol-2-yl]amino]-2-oxo-ethyl]-3-(dimethylsulfamoyl)benzamide] are > 10 µM, > 10 µM, >80% and >60%.
For `Cc1ccc(C(=O)NCC(=O)Nc2nc(-c3ccccc3)cs2)cc1S(C)(=O)=O` [Compound 19, 4-methyl-3-(methylsulfonyl)-N-(2-oxo-2-((4-phenylthiazol-2-yl)amino)ethyl)benzamide], in test [1], the IC50 was < 1 µM. Besides, the “BRM Max % Inhibition” value in test [1] (Table 5) is >70%. In test [2], the IC50 is > 10 µM and the “BRG1 Max % Inhibition” value is listed as >30%.
As for `COc1ccc(C(=O)N[C@@H](CCSC)C(=O)Nc2nc(-c3ccccc3)cs2)cc1S(C)(=O)=O` [Compound 20, 4-methoxy-N-[(1S)-3-methylsulfanyl-1-[(4-phenylthiazol-2-yl)carbamoyl]propyl]-3-methylsulfonyl-benzamide], the concentration for half-maximal inhibition (IC50) in test [1] was > 10 µM. Moreover, in test [1] (Table 5), the “BRM Max % Inhibition” value is listed as >70%. Also, in test [2], the IC50 is > 10 µM and the “BRG1 Max % Inhibition” value is >60%.
With `CC(=O)NC[C@H](NC(=O)c1cccc(S(=O)(=O)N(C)C)c1)C(=O)Nc1nc(-c2ccccc2)cs1` [Compound 21, (S)—N-(3-acetamido-1-oxo-1-((4-phenylthiazol-2-yl)amino)propan-2-yl)-3-(N,N-dimethylsulfamoyl)benzamide], the IC50 in test [1] was > 10 µM. The “BRM Max % Inhibition” value in test [1] (Table 5) was >70%. For the same compound, in test [2], the concentration for half-maximal inhibition (IC50) was > 10 µM and the “BRG1 Max % Inhibition” value was >60%.
In test [1], `CSCC[C@H](NC(=O)c1ccc2[nH]ccc2c1)C(=O)Nc1nc(-c2ccccc2)cs1` [Compound 83, (S)—N-(4-(methylthio)-1-oxo-1-((4-phenylthiazol-2-yl)amino)butan-2-yl)-1H-indole-5-carboxamide] gave a concentration for half-maximal inhibition (IC50) of 1 to 10 µM. The “BRM Max % Inhibition” value in test [1] (Table 5) is >90%.
In test [1], `Cc1nnc(-c2cccc(-c3csc(NC(=O)CNC(=O)c4ccc(N)cc4)n3)c2)o1` [Compound 113, 4-amino-N-(2-((4-(3-(5-methyl-1,3,4-oxadiazol-2-yl)phenyl)thiazol-2-yl)amino)-2-oxoethyl)benzamide] yielded an IC50 of 0.1 to 1 µM.
In the case of `Nc1ccc(C(=O)NCC(=O)Nc2nc(-c3cccc(-c4ccncc4)c3)cs2)cc1` [Compound 117, 4-amino-N-(2-oxo-2-((4-(3-(pyridin-4-yl)phenyl)thiazol-2-yl)amino)ethyl)benzamide], the IC50 in test [1] was < 0.1 µM.
In the case of `CSCC[C@@H](NC(=O)c1ccc(N)cc1)C(=O)Nc1nc(-c2cccc(-c3ccncc3)c2)cs1` [Compound 155, (R)-4-amino-N-(4-(methylthio)-1-oxo-1-((4-(3-(pyridin-4-yl)phenyl)thiazol-2-yl)amino)butan-2-yl)benzamide], in test [1] (Table 6), the “BRM Max % Inhibition” value is listed as >80%.
`Cc1cc(-c2cccc(-c3csc(NC(=O)CNC(=O)c4ccc(N)cc4)n3)c2)on1` [Compound 231, 4-amino-N-[2-[[4-[3-(3-methylisoxazol-5-yl)phenyl]thiazol-2-yl]amino]-2-oxo-ethyl]benzamide] gave an IC50 in test [1] of 0.1 to 1 µM.
